Source: the supplement of paper PMC11208160

assay: recombinant barcode read abundance after kanamycin selection (control-corrected) (log10(CPM+1)); higher = more efficient recombination; sequences stand for … in AGTGCAGAGAAAATCGGCCAGTTTTCTCTGCCTGCAGTCCGCATGCCGT…AGATTTATGCAGCGGACTGCCTTTCTCCCAAAGTGATAAACCGGACAGTATCATGGACCGGTTTTCCCGGTAATCCGTATTTGCAAGGTTGGTTTCACT; site = the 11-nt target
Summary of the method: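 In E. coli, a pooled library matched targets to IS621 bridge RNA target-binding loops and was introduced alongside a donor plasmid. Cells went onto chloramphenicol/ampicillin/kanamycin with 0.1 mM IPTG or onto chloramphenicol/ampicillin LB agar as control, in duplicate. Recombination efficiency, from recombinant-junction barcodes as counts per million, is averaged and control-corrected. It is reported as log10(CPM+1).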
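Also: IS621 recombinase and bridge RNA in Escherichia coli cells.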

| Sequence | recombinant barcode read abundance (log10) |
| --- | --- |
| TGGAGCCCTTGGGTTCTAACCTGTTGCAG (site TGGAGCCCTAT) | 0.13 |
| GTAGGGACTTGGGTTCTAACCTGTTGCCT (site GAAGGGACTAG) | 1.34 |
| TAGCCTACTTGGGTTCTAACCTGTTGCGG (site TAGCCTACTGC) | 0.0519 |
| GGTCAAACTTGGGTTCTAACCTGTTGCCT (site GGTCAAACTAG) | 0.492 |
| GTTGGCGCTTGGGTTCTAACCTGTTGCCT (site GTGGGCGCTAG) | 0.0363 |
| ACGTGAACTTGGGTTCTAACCTGTTGCCT (site ACTTGAACTAG) | 0.0355 |
| GGAAAAGCTTGGGTTCTAACCTGTTGCTT (site TCTTCGACTCT) | 0.153 |
| CTACAACCTTGGGTTCTAACCTGTTGCTT (site CTACAACCTAA) | 1.28 |
| CCGATTCCTTGGGTTCTAACCTGTTGCCT (site CCGACTCCTAG) | 0.171 |
| GGGCATCCTTGGGTTCTAACCTGTTGCAT (site GGGCATCCTAT) | 1.82 |
| CTAACCGCTTGGGTTCTAACCTGTTGCCT (site CAAACCGCTAG) | 0.471 |
| ATAGGACCTTGGGTTCTAACCTGTTGCCG (site ATAGGACCTTG) | 0.143 |
| GTCAACCCTTGGGTTCTAACCTGTTGCTG (site GTCAATCCTCA) | 0.145 |
| GGTACTACTTGGGTTCTAACCTGTTGCAT (site GGTACTACTAT) | 0.54 |
| GACCGCGCTTGGGTTCTAACCTGTTGCCT (site GACCGTGCTAG) | 0.0542 |
| AGAGGGTCTTGGGTTCTAACCTGTTGCCT (site AAAGGGTCTAG) | 0.21 |
| GAGCCTTCTTGGGTTCTAACCTGTTGCAG (site GAGCCTTCTCT) | 1.46 |
| TCCCTATCTTGGGTTCTAACCTGTTGCCT (site TACCTATCTAG) | 0.223 |
| CGACAGTCTTGGGTTCTAACCTGTTGCGT (site CGGCAGTCTAC) | 0.153 |
| CGGACGACTTGGGTTCTAACCTGTTGCCT (site CGGACGGCTAG) | 0.0816 |
| ACTCTAGCTTGGGTTCTAACCTGTTGCTC (site ACTCTAGCTGA) | 1.05 |
| GCCCATCCTTGGGTTCTAACCTGTTGCTA (site TAGTGAGCTCG) | 0.222 |

| Sequence | recombinant barcode read abundance (log10) |
| --- | --- |
| TGGTGTCCTTGGGTTCTAACCTGTTGCCT (site TGGAGTCCTAG) | 0.32 |
| AACTATTCTTGGGTTCTAACCTGTTGCCT (site ATGTATTCTAG) | 0.114 |
| GTAAGTCCTTGGGTTCTAACCTGTTGCGA (site GTAAGTCCTTC) | 2.14 |
| GGTTGAACTTGGGTTCTAACCTGTTGCAT (site GGTTGAACTAT) | 0.0521 |
| AATGGGGCTTGGGTTCTAACCTGTTGCAG (site CGGCCACCTAA) | 0.185 |
| ACTTGCCCTTGGGTTCTAACCTGTTGCCT (site ACTTGCCCTAG) | 0.925 |
| GAACCTACTTGGGTTCTAACCTGTTGCGA (site GAACCTACTTC) | 1.87 |
| TACAATTCTTGGGTTCTAACCTGTTGCAT (site GGGCTCCCTCG) | 0.0564 |
| CCGCGCTCTTGGGTTCTAACCTGTTGCCT (site CCGCGCTCTAG) | 0.641 |
| CGAACGACTTGGGTTCTAACCTGTTGCTT (site CGAACGACTAG) | 0.113 |
| TACCGGACTTGGGTTCTAACCTGTTGCCT (site TACCAGACTAG) | 0.252 |
| ACCAGAGCTTGGGTTCTAACCTGTTGCCT (site ACTAGAGCTAG) | 0.528 |
| TCCTCGTCTTGGGTTCTAACCTGTTGCCT (site TCCTCGTCTAG) | 0.669 |
| CGGAACACTTGGGTTCTAACCTGTTGCGG (site CGGTACACTCC) | 1.08 |
| TACTTAGCTTGGGTTCTAACCTGTTGCCG (site TACTTAGCTCG) | 0.075 |
| ACTTCAACTTGGGTTCTAACCTGTTGCCT (site ACCTCAACTAG) | 0.026 |
| GGCGATCCTTGGGTTCTAACCTGTTGCCT (site GCCGATCCTAG) | 0.213 |
| TAGTAGTCTTGGGTTCTAACCTGTTGCCT (site TAGTAGTCTAG) | 1.64 |
| ACTTCTACTTGGGTTCTAACCTGTTGCCG (site ACTTCTTCTAG) | 0.204 |
| TCGAGTTCTTGGGTTCTAACCTGTTGCCT (site TCGAGTGCTAG) | 0.0736 |
| CTTGAATCTTGGGTTCTAACCTGTTGCCT (site CTTCAATCTAG) | 0.0867 |
| CGCTTGACTTGGGTTCTAACCTGTTGCCT (site CGCTGGACTAG) | 0.131 |

| Sequence | recombinant barcode read abundance (log10) |
| --- | --- |
| TAGGATCCTTGGGTTCTAACCTGTTGCGA (site TAGGATCCTTC) | 2.71 |
| CTTCGAACTTGGGTTCTAACCTGTTGCAT (site ACATACCCTCA) | 0.609 |
| AGAAGTCCTTGGGTTCTAACCTGTTGCTG (site AGAAGTCCTCG) | 0.0922 |
| GAACCTCCTTGGGTTCTAACCTGTTGCAT (site GAACCTCCTAT) | 1.94 |
| GAGTCTACTTGGGTTCTAACCTGTTGCTT (site GAGTCTACTAA) | 0 |
| CTAGGTACTTGGGTTCTAACCTGTTGCTT (site CTAGGTACTAA) | 0.0303 |
| GATTCTCCTTGGGTTCTAACCTGTTGCCT (site GATTCTCCTAT) | 0 |
| TAGTTAGCTTGGGTTCTAACCTGTTGCCG (site TAGTTAGCTGG) | 0.00835 |
| AGACTCTCTTGGGTTCTAACCTGTTGCCT (site ATACTCTCTAG) | 0.377 |
| CTCGTTACTTGGGTTCTAACCTGTTGCCT (site CTCGTTACTAG) | 0.682 |
| TACTAACCTTGGGTTCTAACCTGTTGCCT (site CATTAACCTAG) | 0.0235 |
| GGGGTGTCTTGGGTTCTAACCTGTTGCTG (site GGGCTGTCTAA) | 0.448 |
| CAGGTACCTTGGGTTCTAACCTGTTGCAT (site CAGGTACCTAT) | 3.14 |
| TTACGCACTTGGGTTCTAACCTGTTGCCT (site TTACGCACTAG) | 1.34 |
| CTAAGGGCTTGGGTTCTAACCTGTTGCGG (site CTTAGGGCTCC) | 0.303 |
| CTCGGAACTTGGGTTCTAACCTGTTGCAT (site CTCGGAACTAT) | 1.86 |
| CGTCCGACTTGGGTTCTAACCTGTTGCAT (site CGTCCGACTAT) | 0.113 |
| TAGTTAACTTGGGTTCTAACCTGTTGCCA (site TAGTTTACTTG) | 0.0484 |
| AGGTAACCTTGGGTTCTAACCTGTTGCCT (site GGGTAACCTAG) | 0.885 |
| CTCTCGTCTTGGGTTCTAACCTGTTGCAT (site CTCTCGTCTAT) | 1.45 |
| GCCATGTCTTGGGTTCTAACCTGTTGCCT (site GTCATGTCTAG) | 0.0158 |
| CTCGTTGCTTGGGTTCTAACCTGTTGCCT (site TTCGTTGCTAG) | 0.0838 |

| Sequence | recombinant barcode read abundance (log10) |
| --- | --- |
| TCTAACACTTGGGTTCTAACCTGTTGCCT (site CCTAACACTAG) | 0.0793 |
| GTCGGAACTTGGGTTCTAACCTGTTGCCT (site GTCGGCACTAG) | 0.329 |
| CAACCGCCTTGGGTTCTAACCTGTTGCCT (site CAACCGTCTAG) | 0.864 |
| TAGGCTACTTGGGTTCTAACCTGTTGCAA (site TAGGCTACTTT) | 1.33 |
| TCACATTCTTGGGTTCTAACCTGTTGCCT (site TCACATTCTAG) | 0.31 |
| AGGAGCGCTTGGGTTCTAACCTGTTGCCT (site AGCAGCTCTAG) | 0.105 |
| CAGGTGACTTGGGTTCTAACCTGTTGCGG (site CAGGTGACTCC) | 1.33 |
| AGGCTTACTTGGGTTCTAACCTGTTGCAG (site AGGCTTACTCT) | 1.47 |
| TAGGCTACTTGGGTTCTAACCTGTTGCAC (site TAGGCTACTAT) | 0.147 |
| ACTAGGACTTGGGTTCTAACCTGTTGCGG (site ACTAGGACTAC) | 0.0821 |
| GTAATGTCTTGGGTTCTAACCTGTTGCCT (site GCAATGTCTAG) | 0.289 |
| CAATCGTCTTGGGTTCTAACCTGTTGCTT (site CAATCGTCTAA) | 0.629 |
| GAATCGACTTGGGTTCTAACCTGTTGCCT (site GAATCGACTAG) | 0.421 |
| AGGTCACCTTGGGTTCTAACCTGTTGCCT (site AGGTCACCTAC) | 0.897 |
| ATGTGAACTTGGGTTCTAACCTGTTGCTG (site ATGTGAACTCA) | 1.02 |
| GAGCTGACTTGGGTTCTAACCTGTTGCCT (site GAGCGGACTAG) | 0.0812 |
| TAGCGCACTTGGGTTCTAACCTGTTGCGG (site TAGCACACTCC) | 0.28 |
| TTGAATTCTTGGGTTCTAACCTGTTGCTT (site TTGAATTCTAA) | 0.0275 |
| TCAGAGCCTTGGGTTCTAACCTGTTGCTG (site TCAGAGCCTCA) | 1.28 |
| CGATTTCCTTGGGTTCTAACCTGTTGCCT (site CGATTTCCTAG) | 0.0837 |
